Broadly, the IC50 is the concentration that inhibits the measured activity by half. A low value points to greater potency. By AUC is commonly meant the area under the concentration-time curve, a measure of exposure. The term Cmax denotes the maximum level reached in the sampled fluid or tissue.

One series addresses T1, Interstitial collagenase (Homo sapiens, UniProt P03956).
T1 sequence (P03956 whole entry): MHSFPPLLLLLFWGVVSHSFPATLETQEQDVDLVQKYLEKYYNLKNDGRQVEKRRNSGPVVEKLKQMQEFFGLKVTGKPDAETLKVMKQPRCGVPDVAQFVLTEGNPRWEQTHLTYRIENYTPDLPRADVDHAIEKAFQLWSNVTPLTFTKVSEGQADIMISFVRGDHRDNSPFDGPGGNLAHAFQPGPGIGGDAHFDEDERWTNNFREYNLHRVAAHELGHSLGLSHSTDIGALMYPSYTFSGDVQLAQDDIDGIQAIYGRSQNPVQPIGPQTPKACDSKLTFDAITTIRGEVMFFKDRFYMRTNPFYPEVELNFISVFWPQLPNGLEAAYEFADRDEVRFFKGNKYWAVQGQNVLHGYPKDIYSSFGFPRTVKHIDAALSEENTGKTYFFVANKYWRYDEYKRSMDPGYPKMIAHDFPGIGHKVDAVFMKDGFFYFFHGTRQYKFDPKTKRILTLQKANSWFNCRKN

Another series concerns the target Neutrophil collagenase (Homo sapiens, UniProt P22894).
In series [1] the target is Stromelysin-1 (Homo sapiens) (UniProt P08254).
Stromelysin-1 (Homo sapiens), sequence (P08254 whole entry, looked up): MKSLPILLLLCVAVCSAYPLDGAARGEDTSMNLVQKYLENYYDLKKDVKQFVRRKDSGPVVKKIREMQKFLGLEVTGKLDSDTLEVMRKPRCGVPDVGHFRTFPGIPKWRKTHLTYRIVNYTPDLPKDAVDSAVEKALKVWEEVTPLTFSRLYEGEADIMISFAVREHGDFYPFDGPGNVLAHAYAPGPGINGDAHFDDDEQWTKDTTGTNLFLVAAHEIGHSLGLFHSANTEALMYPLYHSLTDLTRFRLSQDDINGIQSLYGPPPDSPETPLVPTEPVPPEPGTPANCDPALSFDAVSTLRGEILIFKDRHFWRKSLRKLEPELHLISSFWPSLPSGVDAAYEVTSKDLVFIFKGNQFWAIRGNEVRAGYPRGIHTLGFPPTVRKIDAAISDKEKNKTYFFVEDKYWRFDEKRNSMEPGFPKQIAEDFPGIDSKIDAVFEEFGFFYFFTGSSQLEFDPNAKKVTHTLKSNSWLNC
The species entered for the next series is Rattus norvegicus. The conditions noted are these: in vivo, po.
The next series in a line: in vivo. To be noted: rat, po.

Neutrophil collagenase, sequence (P22894 whole entry): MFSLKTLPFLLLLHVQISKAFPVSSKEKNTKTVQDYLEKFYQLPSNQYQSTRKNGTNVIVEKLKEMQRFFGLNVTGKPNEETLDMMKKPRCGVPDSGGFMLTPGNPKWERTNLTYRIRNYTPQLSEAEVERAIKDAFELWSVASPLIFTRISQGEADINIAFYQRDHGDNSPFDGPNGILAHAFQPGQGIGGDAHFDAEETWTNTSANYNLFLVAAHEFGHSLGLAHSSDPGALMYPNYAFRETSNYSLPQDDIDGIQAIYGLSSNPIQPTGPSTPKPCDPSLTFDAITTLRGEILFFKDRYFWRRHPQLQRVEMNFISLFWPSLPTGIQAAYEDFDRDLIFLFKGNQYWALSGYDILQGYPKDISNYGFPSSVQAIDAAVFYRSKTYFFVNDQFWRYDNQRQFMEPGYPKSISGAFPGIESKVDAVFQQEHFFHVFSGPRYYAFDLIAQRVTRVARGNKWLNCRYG

Molecule `CC(C)C[C@@H](C(=O)N(C)C)[C@H](CN(C)S(C)(=O)=O)C(=O)NO` came in with a 50% inhibitory concentration (IC50) on Interstitial collagenase of 1000 nM.
For the molecule `CC(C)C[C@@H](C(=O)N1CCOCC1)[C@H](CN1C(=O)c2ccccc2C1=O)C(=O)NO`, the IC50 against Interstitial collagenase came out at 20 nM; at Neutrophil collagenase, 600 nM.
Take `CC(C)C[C@@H](C(=O)N1CCCCC1)[C@H](O)C(=O)NO`: the IC50 against Interstitial collagenase is 800 nM; against Neutrophil collagenase, 1000 nM. Further, the IC60 in series [1] stood at 100 µM.
For the molecule `CN(C[C@H](C(=O)NO)[C@@H](CC1CCCC1)C(=O)N1CCOCC1)S(C)(=O)=O`, the IC50 against Interstitial collagenase was 5 nM.
Turning to `COc1ccc(S(=O)(=O)N(C)C[C@H](C(=O)NO)[C@@H](CC2CCCC2)C(=O)N2CCOCC2)cc1`, the 50% inhibitory concentration (IC50) at Interstitial collagenase turned out to be 10 nM.
On to `CN(C[C@H](C(=O)NO)[C@@H](CC1CCCC1)C(=O)N1CCCCC1)S(C)(=O)=O`, for which the area under the curve (AUC) in the series filed under Rattus norvegicus was 662 ng·h/mL. In “in vivo”, the Cmax at 0.5 h came out at 172 ng/mL.
In turn, `CN(C[C@H](C(=O)NO)[C@@H](CC1CCCC1)C(=O)N1CCCCC1)S(=O)(=O)c1cccc2ccccc12` displayed an IC50 at Interstitial collagenase of 6 nM.
`CC(C)C[C@@H](C(=O)N1CCCCC1)[C@H](CN(C)S(C)(=O)=O)C(=O)NO` showed a 50% inhibitory concentration (IC50) against Interstitial collagenase of 60 nM.
The molecule `CN(C[C@H](C(=O)NO)[C@@H](CC1CCCC1)C(=O)N1CCCCC1)S(=O)(=O)c1ccc(Cl)cc1` yielded a 50% inhibitory concentration (IC50) on Interstitial collagenase of 9 nM.
At Interstitial collagenase, `CS(=O)(=O)N(C[C@H](C(=O)NO)[C@@H](CC1CCCC1)C(=O)N1CCCCC1)C1CC1` showed an IC50 of 10 nM.
